# Results published in patent publication US8575106B2, “Cosmetic uses of modified stressed yeast extracts and related compositions” (Avon Products, Inc., priority 2009, dated 2013).
# Legend:
# [1] = test system: B16 mouse melanoma cell lines; assay: Melanin synthesis in B16 cells, normalized to cell viability (MTT); type: cell-based; conditions: 100 μM 2-APB, 7 days, relative to control
# Description: Next, the effects of 2-APB and modified peptide fractions having a zinc-complexed peptide comprising SEQ ID NO:1 on melanin synthesis were examined in B16 cells. B16 mouse melanoma cell lines (ATCC, cat. #: CRL-6475) were grown in 96-well tissue culture treated dishes (Falcon) and treated with a test compound to determine its ability to modulate pigment formation (melanin synthesis). Specifically, cells were exposed to 100 μM 2-APB or modified yeast peptide fractions comprising different concentrations of zinc-complexed peptide comprising SEQ ID NO:1, including 1% and 0.1% zinc-complexed peptide, for seven (7) days. Following the treatment period, the level of melanin synthesized was quantified using a Packard micro-plate reader at 540 nm.
# After quantifying the amount of melanin synthesized, cell viability was determined using the MTT conversion method. […] After melanin synthesis quantification, the cultures were exposed to MTT dye solution with a concentration of 1 mg/ml for three hours. […] MTT dye uptake and conversion by viable cells was determined by measuring the extracted formazan at 570 nm using a Packard micro-plate reader.
# After normalizing to cell viability, total pigmentation then was calculated, and expressed as a percent activity of control. […]
# B16 melanoma cells = assay: Calcium influx into B16 melanoma cells (Fluo-4 NW Calcium Assay, Thapsigargin-stimulated); type: cell-based, mouse; conditions: 100 μM 2-APB, area under curve of calcium influx peak vs vehicle control
# Description: Modified yeast peptide fractions comprising a zinc-complexed peptide comprising SEQ ID NO:1 were tested in vitro for the ability to inhibit calcium influx into pigment-producing cells. An experiment was designed to measure intracellular calcium in B16 melanoma cells using Fluo-4 NW Calcium Assay Kits (Invitrogen) as per manufacturer's instructions. B16 mouse melanoma cell lines (ATCC, cat. #: CRL-6475) were grown in 96-well tissue culture treated dishes in growth medium. Prior to calcium treatment, growth medium from the B16 cell cultures was removed and 100 μL of the dye loading solution was added quickly to each well of a 96-well plate. Plates were incubated at 37° C. for 30 minutes, then at room temperature for an additional 30 minutes. Dye buffer was removed and plates were washed once with 1×PBS and replaced with an assay buffer that contains calcium (and was formed according to the manufacturer's directions) along with a test compound. […]
# Fluorescence was measured using a micro-plate reader at excitation/emission wavelengths of 485 nm/530 nm, respectively. The reader was set to read florescence every 30 seconds for a period of 5 minutes. […] The fluorescence micro-plate reader was set to take fluorescence measurements every 30 seconds for a period of 30 minutes, again at excitation/emission wavelengths of 485 nm/530 nm, respectively. […]
structure (smiles),measurement,setting,value
"NCCOB(c1ccccc1)c1ccccc1 [2-APB, 2-aminoethyl diphenylborate]",inhibition of melanin synthesis,[1],77%
same,inhibition of calcium entry into the cells,B16 melanoma cells,86%
